Like-named read-outs stand apart in the source and are kept apart here.
How the values were obtained:
K562 cells = experiment: Cell Titer Glo 2.0 cell viability assay; format: cell-based; details: Homo sapiens, 500 cells/well, 72 hours
Experimental: Compounds described herein were screened for toxicity in K562 (human chronic myelogenous leukemia) and SH-SY5Y (human neuroblastoma) cells using a Cell Titer Glo 2.0 assay. • Promega CellTiter-Glo® 2.0 Cell Viability Assay (cat #G9241) • Corning 384-well TC-treated microplates (cat #3570) Cells were plated at 500 cells/well (K562 cells) in 45 μL of IMDM supplemented with 10% FBS in a 384-well opaque plate. Wells containing only medium were used as a blank control. Test compounds (e.g., compounds of Formula (I), (II), or (III)) were first serially diluted in DMSO then diluted 1:100 with IMDM+10% FBS. The final concentration of DMSO was 0.1% in each well. The cells were incubated for 72 hours at 37° C. and 5% CO2 before assaying with Cell Titer Glo 2.0 reagent.

SMN2 mRNA = experiment: RT-qPCR splicing assay, gene panel, SMN2 canonical junction (CJ) mRNA; format: cell-based; details: Homo sapiens, read-out: SMN2 CJ IC50
Experimental: Compounds described herein were used to modulate RNA transcript abundance in cells. The expression of a target mRNA was measured by detecting the formation of an exon-exon junction in the canonical transcript (CJ). A compound mediated exon-inclusion event was detected by observing an increase in formation of a new junction with an alternative exon (AJ). Real-time qPCR assays were used to detect these splicing switches and interrogate the potency of various compounds towards different target genes. A high-throughput real time quantitative PCR (RT-qPCR) assay was developed to measure these two isoforms of the mRNA (CJ and AJ) for exemplary genes, such as HTT, SMN2, and MYB, together with a control housekeeping gene, GAPDH or GUSB or PPIA, used for normalization. Briefly, the A673 or K562 cell line was treated with various compounds described herein (e.g., compounds of Formula (I)). After treatment, the levels of the HTT, MYB, or SMN2 mRNA targets were determined from each sample of cell lysate by cDNA synthesis followed by qPCR.
The A673 cell line was cultured in DMEM with 10% FBS. Cells were diluted with full growth media and plated in a 96-well plate (15,000 cells in 100 ul media per well). The plate was incubated at 37° C. with 5% CO2 for 24 hours to allow cells to adhere. An 11-point 3-fold serial dilution of the compounds was made in DMSO then diluted in media in an intermediate plate. Compounds were transferred from the intermediate plate to the cell plate with the top dose at a final concentration of 10 uM in the well. Final DMSO concentration was kept at or below 0.25%. The cell plate was returned to the incubator at 37° C. with 5% CO2 for an additional 24 hours.
The K562 cell line was cultured in IMDM with 10% FBS. For K562, cells were diluted with full growth media and plated in either a 96-well plate (50,000 cells in 50 uL media per well) or a 384-well plate (8,000-40,000 cells in 45 uL media per well). An 11-point 3-fold serial dilution of the compounds were made in DMSO then diluted in media in an intermediate plate. Compound was transferred from the intermediate plate to the cell plate with the top dose at a final concentration of 10 uM in the well. Final DMSO concentration was kept at or below 0.25%. Final volume was 100 uL for 96-well plate and 50 uL for 384-well plate. The cell plate was then placed in an incubator at 37° C. with 5% CO2 for 24 hours.
The cells were then gently washed with 50 uL-100 uL cold PBS before proceeding to addition of lysis buffer. 30 uL-50 μL of room temperature lysis buffer with DNAse I (and optionally RNAsin) was added to each well. Cells were shaken/mixed thoroughly at room temperature for 5-10 minutes for lysis to take place and then 3 uL-5 μL of room temperature stop solution was added and wells were shaken/mixed again. After 2-5 minutes, the cell lysate plate was transferred to ice for RT-qPCR reaction setup. The lysates could also be frozen at −80° C. for later use.
In some cases, a direct lysis buffer was used. An appropriate volume of 3× lysis buffer (10 mM Tris, 150 mM NaCl, 1.5%-2.5% Igepal and 0.1-1 U/uL RNAsin, pH 7.4) was directly added to either K562 or A673 cells in media and mixed by pipetting 3 times. The plates were then incubated at room temperature with shaking/rocking for 20-50 minutes to allow for lysis to take place. After this time, the cell lysate plate was transferred to ice to set up for the RT-qPCR reactions. The lysates could also be frozen at −80° C. for later use.
To set up 10 uL RT-qPCR reactions, cell lysates were transferred to 384-well qPCR plates containing the master mix according to the table below. The plates were sealed, gently vortexed, and spun down before the run. The volumes were adjusted accordingly in some instances where the reaction was carried in 20 μL. The table below summarizes the components of the RT-qPCR reactions:
The RT-qPCR reaction was performed using a QuantStudio (ThermoFisher) under the following fast cycling conditions. […]

[1] = decrease in CJ mRNA levels, larger panel of genes, Table 3

Structure (SMILES)	GI50 (K562 cells)	IC50 (SMN2 mRNA; [1])	IC50 (SMN2 mRNA)
Cc1cn2nc(-c3cc(F)c4nn(C5CCN(CC6CC6)CC5)cc4c3)cc(C)c2n1 [Compound 149, 6-[2-[1-(cyclopropylmethyl)-4-piperidyl]-7-fluoro-indazol-5-yl]-2,8-dimethyl-imidazo[1,2-b]pyridazine]	< 100 nM	< 100 nM	
Cc1c(O)c(-c2ccc3nn(C4CCNCC4)cc3n2)cc2cn(C)nc12 [Compound 109, 2,7-dimethyl-5-[2-(4-piperidyl)pyrazolo[4,3-b]pyridin-5-yl]indazol-6-ol]	100 to 1000 nM	< 100 nM	
Cc1cn2nc(-c3cc(F)c4nn(C5CCN(CCF)CC5)cc4c3)cc(C)c2n1 [Compound 152]		< 100 nM	
Cc1nc2c(F)cc(-c3cc(F)c4nn(C5CCNCC5)cc4c3)cc2o1 [Compound 136, 4-fluoro-6-[7-fluoro-2-(4-piperidyl)indazol-5-yl]-2-methyl-1,3-benzoxazole]	100 to 1000 nM	< 100 nM	
Cc1cn2nc(-c3cc(F)c4nn(C5CCN(C)CC5)cc4c3)cc(C)c2n1 [Compound 150, 6-[7-fluoro-2-(1-methyl-4-piperidyl)indazol-5-yl]-2,8-dimethyl-imidazo[1,2-b]pyridazine]		< 100 nM	
Cn1cc2cc(-c3cc(F)c4nn(C5CCNCC5)cc4c3)cc(C#N)c2n1 [Compound 130, 5-[7-fluoro-2-(4-piperidyl)indazol-5-yl]-2-methyl-indazole-7-carbonitrile]	100 to 1000 nM	< 100 nM	
Cn1cc2cc(-c3cc(F)c4nn(C5CCNC6(CC6)C5)cc4c3)cc(F)c2n1 (centres unmarked) [Compound 108, 2-(4-azaspiro[2.5]octan-7-yl)-7-fluoro-5-(7-fluoro-2-methyl-indazol-5-yl)indazole]	100 to 1000 nM	100 to 1000 nM	
Cc1cn2cc(-c3cc(F)c4nn(C5CCNCC5)cc4c3)cc(C)c2n1 [Compound 125, 5-(2,8-dimethylimidazo[1,2-a]pyridin-6-yl)-7-fluoro-2-(4-piperidyl)indazole]	100 to 1000 nM	< 100 nM	
Cc1cn2nc(-n3cc4cc(C5CCNCC5)cc(F)c4n3)cc(C)c2n1 [Compound 120, 6-[7-fluoro-5-(4-piperidyl)indazol-2-yl]-2,8-dimethyl-imidazo[1,2-b]pyridazine]	1000 to 10000 nM	100 to 1000 nM	
Cc1cc(-n2cc3cc(N4CCNCC4)cc(F)c3n2)cc2cn(C)nc12 [Compound 117, 2-(2,7-dimethylindazol-5-yl)-7-fluoro-5-piperazin-1-yl-indazole]	1000 to 10000 nM	100 to 1000 nM	
Cc1cn2nc(-c3ccc4nn(C5CCNCC5)cc4c3)cc(C)c2n1 [Compound 192, 2,8-dimethyl-6-[2-(4-piperidyl)indazol-5-yl]imidazo[1,2-b]pyridazine]	100 to 1000 nM	< 100 nM	
Cn1cc2cc(-c3ccc4nn(C5CCNCC5)cc4n3)c(O)c(F)c2n1 [Compound 107, 7-fluoro-2-methyl-5-[2-(4-piperidyl)pyrazolo [4,3-b]pyridin-5-yl]indazol-6-ol]	100 to 1000 nM	< 100 nM	
Cc1cn2nc(-c3cc(F)c4nn([C@@H]5CCNC[C@H]5F)cc4c3)cc(C)c2n1 [Compound 168, 6-(7-fluoro-2-((3R,4R)-3-fluoropiperidin-4-yl)-2H-indazol-5-yl)-2,8-dimethylimidazo [1,2-b]pyridazine]	100 to 1000 nM	< 100 nM	
Cc1cn2nc(-c3cc(F)c4nn(C5CCNC6(CCC6)C5)cc4c3)cc(C)c2n1 (centres unmarked) [Compound 189, 6-[2-(5-azaspiro[3.5]nonan-8-yl)-7-fluoro-indazol-5-yl]-2,8-dimethyl-imidazo[1,2-b]pyridazine]	100 to 1000 nM	< 100 nM	
Fc1cc(-c2ccc3ccncc3c2)cc2cn(C3CCNCC3)nc12 [Compound 158, 7-[7-fluoro-2-(4-piperidyl)indazol-5-yl]isoquinoline]	1000 to 10000 nM	1000 to 10000 nM	
Cc1nc2c(C)cc(-c3cc(F)c4nn(C5CCNCC5)cc4c3)cc2o1 [Compound 137, 6-[7-fluoro-2-(4-piperidyl)indazol-5-yl]-2,4-dimethyl-1,3-benzoxazole]	100 to 1000 nM	< 100 nM	
Cc1cn2nc(-c3cc(F)c4nn([C@H]5CCNC6(CC6)C5)cc4c3)cc(C)c2n1 [Compound 172]	100 to 1000 nM	< 100 nM	
Cn1cc2cc(-c3cc(Cl)c4nn(C5CCNCC5)cc4n3)c(O)cc2n1 [Compound 141]		1000 to 10000 nM	
Cc1ncc2cc(-c3cc(F)c4nn(C5CCNCC5)cc4c3)ccc2n1 [Compound 165, 6-[7-fluoro-2-(4-piperidyl)indazol-5-yl]-2-methyl-quinazoline]	> 10000 nM	> 10000 nM	
Cc1ccc2cc(-c3cc(F)c4nn(C5CCNCC5)cc4c3)ccc2n1 [Compound 163, 6-[7-fluoro-2-(4-piperidyl)indazol-5-yl]-2-methyl-quinoline]	1000 to 10000 nM	1000 to 10000 nM	
Cc1cc(-c2cc(F)c3nn(C4CCNCC4)cc3c2)cc2cn(C)nc12 [Compound 133, 5-(2,7-dimethylindazol-5-yl)-7-fluoro-2-(4-piperidyl)indazole]	100 to 1000 nM	< 100 nM	
CCN1CCC(n2cc3cc(-c4cc(C)c5nc(C)cn5n4)cc(F)c3n2)CC12CC2 (centres unmarked) [Compound 177, 6-[2-(4-ethyl-4-azaspiro[2.5]octan-7-yl)-7-fluoro-indazol-5-yl]-2,8-dimethyl-imidazo[1,2-b]pyridazine]	100 to 1000 nM	< 100 nM	
Cc1cn2nc(-c3ccc4nn(C5CCNCC5)cc4n3)cc(C)c2n1 [Compound 138, 2,8-dimethyl-6-[2-(4-piperidyl)pyrazolo[4,3-b]pyridin-5-yl]imidazo[1,2-b]pyridazine]	1000 to 10000 nM	< 100 nM	
Cc1nc2ccc(-c3cc(F)c4nn(C5CCNCC5)cc4c3)cc2o1 [Compound 135, 6-[7-fluoro-2-(4-piperidyl)indazol-5-yl]-2-methyl-1,3-benzoxazole]	100 to 1000 nM	< 100 nM	
Cc1cc(-n2cc3cc(N4CCNCC4)ccc3n2)cc2cn(C)nc12 [Compound 121, 2,7-dimethyl-5-(5-piperazin-1-ylindazol-2-yl)indazole]	1000 to 10000 nM	1000 to 10000 nM	
Cc1cn2nc(-c3cc(F)c4nn(C5CCN(C6CCC6)CC5)cc4c3)cc(C)c2n1 [Compound 151, 6-[2-(1-cyclobutyl-4-piperidyl)-7-fluoro-indazol-5-yl]-2,8-dimethyl-imidazo [1,2-b] pyridazine]			< 100 nM
Cc1cn2nc(-c3cc4cn(C5CCNCC5)nc4c(OCc4ccccc4)n3)cc(C)c2n1 [Compound 153, 6-[7-benzyloxy-2-(4-piperidyl)pyrazolo [3,4-c]pyridin-5-yl]-2,8-dimethyl-imidazo[1,2-b]pyridazine]		> 10000 nM	
Cc1cn2nc(-c3cc4cn(C5CCNCC5)nc4c(O)n3)cc(C)c2n1 [Compound 139, 5-(2,8-dimethylimidazo[1,2-b]pyridazin-6-yl)-2-(4-piperidyl)-6H-pyrazolo[3,4-c]pyridin-7-one]		< 100 nM	

— patent US20250082633A1, “COMPOUNDS AND METHODS FOR MODULATING SPLICING” (REMIX THERAPEUTICS INC., priority 2021, published 2025)
